Results as given in publication PMC11726677, “Eradication of Therapy-Resistant Cancer Stem Cells by Novel Telmisartan Derivatives” (Journal of Medicinal Chemistry, 2024).
Where “and” joins values, the source holds several entries; their conditions need not be identical. Equal values may be shown once. Marks after values point to notes of the source that are not given here.

System: human CML K562-R xenograft
Test: Efficacy in human CML K562-R xenograft model
Format: in vivo, female NOD/SCID mice
Design: % T/C (treatment/control) / % TGI (tumor growth inhibition): concentration or dose not given beside the values
Settings: for Tumor Volume, individual animal / Tumor Volume, group mean: PO QD x 30 days (imatinib 50 mg/kg, 7c 10 mg/kg); for % T/C (treatment/control): mean tumor volume treated vs control; for % TGI (tumor growth inhibition): vs vehicle control
Protocol: The animals were checked daily for humane end points. Body weight was measured and recorded daily after dosing.
The % T/C value, defined as the ratio of the mean tumor volume for the treated versus control group, was calculated as % T/C = (Tn/Cn) × 100%; whereas Tn: denotes mean tumor volume of the treated group on day n, and Cn: denotes mean tumor volume of the control group on day n. The optimal value is the minimal % T/C ratio, which reflects the maximal tumor growth inhibition achieved.
TGI (Tumor growth inhibition) was calculated by the following formula [drawing 1] [drawing 2]
Whereas: Tn: denotes the mean tumor volume of the treated group on day n; T1: denotes the mean tumor volume of the treated group on day 1; Cn: denotes the mean tumor volume of the vehicle control group on day n; and C1: denotes the mean tumor volume of the vehicle control group at day 1.

CCCc1nc2c(C)cc(-c3nc4ccccc4n3C)cc2n1Cc1ccc(-c2ccccc2C(N)=O)cc1 [7c, 4′-((1,7′-Dimethyl-2′-propyl-1H,3′H-[2,5′-bibenzo[d]imidazole]-3′-yl)methyl)-[1,1′-biphenyl]-2-carboxamide]
Tumor Volume, individual animal (Day 1, animals No. 1–7): 171 mm3 and 163 mm3 and 155 mm3 and 149 mm3 and 140 mm3 and 136 mm3 and 124 mm3
Tumor Volume, group mean (Day 1, n = 7): 148 mm3
Tumor Volume, individual animal (Day 5, animals No. 1–7): 197 mm3 and 204 mm3 and 162 mm3 and 148 mm3 and 149 mm3 and 187 mm3 and 130 mm3
Tumor Volume, group mean (Day 5, n = 7): 168 mm3
% T/C (treatment/control) (Day 5): 90%
% TGI (tumor growth inhibition) (Day 5): 46%
Tumor Volume, individual animal (Day 8, animals No. 1–7): 202 mm3 and 360 mm3 and 167 mm3 and 154 mm3 and 155 mm3 and 464 mm3 and 133 mm3
Tumor Volume, group mean (Day 8, n = 7): 234 mm3
% T/C (treatment/control) (Day 8): 96%
% TGI (tumor growth inhibition) (Day 8): 9%
Tumor Volume, individual animal (Day 12, animals No. 1–7): 213 mm3 and 711 mm3 and 201 mm3 and 158 mm3 and 164 mm3 and 949 mm3 and 143 mm3
Tumor Volume, group mean (Day 12, n = 7): 363 mm3
% T/C (treatment/control) (Day 12): 88%
% TGI (tumor growth inhibition) (Day 12): 18%
Tumor Volume, individual animal (Day 15, animals No. 1–7): 216 mm3 and 991 mm3 and 317 mm3 and 165 mm3 and 168 mm3 and 1349 mm3 and 143 mm3
Tumor Volume, group mean (Day 15, n = 7): 478 mm3
% T/C (treatment/control) (Day 15): 75%
% TGI (tumor growth inhibition) (Day 15): 32%
Tumor Volume, individual animal (Day 19, animals No. 1–7): 207 mm3 and 1716 mm3 and 521 mm3 and 192 mm3 and 174 mm3 and 1858 mm3 and 148 mm3
Tumor Volume, group mean (Day 19, n = 7): 688 mm3
% T/C (treatment/control) (Day 19): 84%
% TGI (tumor growth inhibition) (Day 19): 20%
Tumor Volume, individual animal (Day 22, animals No. 1–7): 181 mm3 and 2448 mm3 and 891 mm3 and 198 mm3 and 180 mm3 and 2149 mm3 and 149 mm3
Tumor Volume, group mean (Day 22, n = 7): 885 mm3
% T/C (treatment/control) (Day 22): 79%
% TGI (tumor growth inhibition) (Day 22): 24%
Tumor Volume, individual animal (Day 26, animals No. 1–7): 181 mm3 and 2912 mm3 and 1522 mm3 and 206 mm3 and 188 mm3 and 2607 mm3 and 156 mm3
Tumor Volume, group mean (Day 26, n = 7): 1110 mm3
% T/C (treatment/control) (Day 26): 69%
% TGI (tumor growth inhibition) (Day 26): 34%
Tumor Volume, individual animal (Day 29, animals No. 1–7): 184 mm3 and 3497 mm3 and 1803 mm3 and 214 mm3 and 196 mm3 and 2946 mm3 and 163 mm3
Tumor Volume, group mean (Day 29, n = 7): 1286 mm3
% T/C (treatment/control) (Day 29): 65%
% TGI (tumor growth inhibition) (Day 29): 38%
Tumor Volume, individual animal (Day 33, animals No. 1–7): 200 mm3 and 4707 mm3 and 2923 mm3 and 214 mm3 and 196 mm3 and 3520 mm3 and 172 mm3
Tumor Volume, group mean (Day 33, n = 7): 1705* mm3
% T/C (treatment/control) (Day 33): 63%
% TGI (tumor growth inhibition) (Day 33): 39%
Tumor Weight, individual animal (harvested on day 33, animals No. 1–7): 0.078 g and 3.807 g and 2.646 g and 0.268 g and 0.057 g and 4.319 g and 0.060 g
Tumor Weight, group mean (harvested on day 33, n = 7): 1.600 g
